Experimental data taken from a melting point compilation (Tetko et al.; mined from patent text by program, amines drawn as free bases though some values may be those of a salt).

First: CC(C)n1cc2c3c(cccc31)C1CC(C(=O)NCCc3c[nH]cn3)CN(C)C1C2 (stereo not given)
Second: CC(C)c1cccc(C(C)C)c1NC(=O)CN1CCCN(CCCSc2nc3ncccc3o2)CC1
The melting point of the first is higher: 83 to 86 °C for the first, 73 to 75 °C for the second.

First: CC(=O)CN1CCc2c(c(=O)oc3cc(C)c(C)cc23)C1
Second: COc1c(C)cc(N2CCN(S(=O)(=O)c3ccc(C)cc3)CC2)cc1C
The melting point of the first is lower: 136 to 138 °C for the first, 174 °C for the second.

First: NC1Cc2ccccc2CN(CC(=O)O)C1=O (stereo not given)
Second: CC(=O)Nc1cccc2c1S(=O)(=O)C(C)C2 (stereo not given)
The melting point of the first is higher: 266 to 268 °C for the first, 115 to 117 °C for the second.

First: CCC(Oc1cccc(C)c1C)C1=NCCN1C=Nc1ccccn1 (stereo not given)
Second: OCc1ccnc(OCc2cn3c(Cl)cccc3n2)c1
The melting point of the first is lower: 108 to 110 °C for the first, 143 to 144 °C for the second.

First: CCOC=C1C=C(C(C)(C)C)C(=O)C(C(C)(C)C)=C1
Second: C#Cc1cn(C2CC(OC(=O)C(C)(C)C)C(COC(=O)C(C)(C)C)O2)c(=O)[nH]c1=O (stereo not given)
The melting point of the first is lower: 114 to 117 °C for the first, 151 °C for the second.

First: COc1ccc(-c2cnn3c(N)c(-c4ccc(F)c(Cl)c4)c(C)nc23)cc1
Second: COc1ccc(-c2cc(C(=O)O)sc2-c2ccc(F)cc2)cc1
The melting point of the first is higher: 224 to 227 °C for the first, 204 to 206 °C for the second.

First: CON=C(C)c1cc2c(Oc3ccc(Cl)cc3)cncc2s1
Second: CON=C(c1ccc(OC(C)(C)C(=O)O)cc1)c1cccs1
The melting point of the first is lower: 126 to 128 °C for the first, 168 °C for the second.

Compared with `CC(=O)Nc1ccc(N2CCN(c3ccncc3)CC2)cc1`, `CS(=O)(=O)Nc1ccc(N2CCN(c3ccncc3)CC2)cc1` is lower in melting point: 244 to 247 °C for the first, 230 to 232 °C for the second.

First: O=C(NCc1cccc2nc(N[C@@H]3CCc4ccccc43)ccc12)c1ccc(F)cc1
Second: O=C(Cc1ccc(Oc2ccccc2)cc1)NNC(=O)c1ccc(O)cc1
The melting point of the first is lower: 145 °C for the first, 181 to 183 °C for the second.

First: COc1ccc(CC(=O)O)c(C)c1OC
Second: COc1ccc(C(=O)c2ccc(C)cc2)cc1C
The melting point of the first is higher: 102 to 104 °C for the first, 73 to 75 °C for the second.

`Nc1ccc(S(=O)(=O)N2C=CC(CCO)Sc3ccccc32)cc1` (stereo not given) and `CC(O)(CNc1ccc(S(=O)(=O)c2ccccc2)cc1)C(F)(F)F` (stereo not given) cannot be ordered by melting point: 145 to 148 °C for the first, 145 to 146 °C for the second.

First: O=C(Nn1c(=O)c(=O)[nH]c2ccc3ccccc3c21)c1ccccc1
Second: O=C1c2ccccc2C(=O)N1OS(=O)(=O)c1ccc2ccccc2c1
The melting point of the first is higher: greater than 300 °C for the first, 223 to 225 °C for the second.

First: Cn1cc(-c2ncc(-c3ccc4cc(OC(Cc5ccccc5)C(=O)O)ccc4c3)o2)c2ccccc21 (stereo not given)
Second: COc1cc(C(=O)Nc2nn(-c3ccccc3)cc2C=O)ccc1OCc1nc(-c2ccccc2)oc1C
The melting point of the first is lower: 149 to 151 °C for the first, 234 to 235 °C for the second.

Compared with `CCCCCCCCCCCCCCCCOCCOCCOC(=O)NCc1ccccn1`, `CCCCOCCCCCCCCCCC(=O)O` is lower in melting point: 57 to 59 °C for the first, 29 to 30.5 °C for the second.

First: CCOC(=O)/C(Cl)=N/Nc1ccc(OC)cc1
Second: CCOC(=O)NC(=O)NC(=NC(=O)Nc1ccc(Cl)cc1)OC
The melting point of the first is lower: 87 to 89 °C for the first, 140 to 142 °C for the second.

Compared with `COc1ccc(CN2CCN(CCCN3CCN(Cc4ccc(OC)cc4)CC3)CC2)cc1`, `O=C1Nc2cccnc2N(C(=O)NCCN2CCC(CCCN3CCCCC3)CC2)c2ccccc21` is higher in melting point: 86 to 87 °C for the first, 192 to 193 °C for the second.

First: CC(C(=O)O)c1cc(F)c([N+](=O)[O-])cc1[N+](=O)[O-] (stereo not given)
Second: CC(C)COC(c1cc(Cl)cc([N+](=O)[O-])c1O)c1cc(Cl)cc([N+](=O)[O-])c1O
The melting point of the first is higher: 141 to 142 °C for the first, 95 °C for the second.

Compared with `CS(=O)(=O)c1ccc(-c2nn3c(-c4ccc(F)cc4)coc3c2-c2ccc(F)cc2)cc1`, `CCCCc1ccc(-c2ccc(CCc3ccc(C)cc3)cc2)c(F)c1` is lower in melting point: 200 to 202 °C for the first, 41 °C for the second.

First: CCOC(=O)C(=CNc1nccs1)C(=O)c1c(Cl)cc(Cl)nc1Cl
Second: CS(=O)(=O)c1ccc(C(=O)C(=CO)C(=O)C2CC2)c(Cl)c1-c1nccs1
The melting point of the first is lower: 126 to 127 °C for the first, 176 °C for the second.

First: O=C(/C=C/C=C(c1cccc(Cl)c1)c1cccc(Cl)c1)NCCCCc1cccnc1
Second: CC(C)C[C@H](NC(=O)c1cccc(Cl)c1)C(=O)N[C@@H](C(C)C)[C@@H](O)c1c(-c2ccccc2)c1=O
The melting point of the first is lower: 100 to 102 °C for the first, 179 °C for the second.

First: CC(=O)Nc1cccc2c1C(=O)OC2C (stereo not given)
Second: NS(=O)(=O)c1cc2ccc(O)cc2o1
The melting point of the first is lower: 112 °C for the first, 185 to 187 °C for the second.

Compared with `N#CCOc1ccc(CN2C(=O)c3cccc(NC(=O)c4ccc(Cl)s4)c3C2=O)cc1`, `COc1ccc(CN(C)CCCOc2ccc(NC(=O)c3cccc4c(=O)c5cccc(F)c5[nH]c34)cc2)cc1OC` is lower in melting point: 199 °C for the first, 150 °C for the second.

First: CCOC(=O)C(=O)CC(=O)c1cn(Cc2cccc(OC)c2)c2ccccc2c1=O
Second: CCC(C)(OCc1nn(Cc2ccccc2)c2ccccc12)C(=O)O (stereo not given)
The melting point of the first is higher: 177 to 179 °C for the first, 66 to 67 °C for the second.

First: CN(C1CCCCC1)S(=O)(=O)c1ccc(CCSn2cnc3ccccc32)cc1
Second: O=C1CC(=O)N(c2ccccc2)c2cc(Cl)ccc2N1CC1CC1
The melting point of the first is lower: 60 to 63 °C for the first, 215 to 218 °C for the second.

First: COc1ccc(C(O)CN2CC=C(C3=NNC(=O)CS3)CC2)cc1 (stereo not given)
Second: COc1ccc(C2=CCN(Cc3c[nH]c4ncccc34)CC2)cc1
The melting point of the first is lower: 197 to 198 °C for the first, 202 to 204 °C for the second.

First: Cc1cc(F)ccc1-c1nc(NCC(F)(F)F)nc2c1ccc(=O)n2-c1c(F)cccc1F
Second: O=C(O)c1cc(F)cc(-c2cccc3cc(Cc4ccc(F)c(Cl)c4)sc23)c1
The melting point of the first is higher: 195 to 196 °C for the first, 135 to 137 °C for the second.

Compared with `CCOC(=O)C=C(C)C=CC=C(C)C=Cc1c(C)cc(C)c(Cl)c1C`, `Cc1nc(-c2ccc(OCC(C)C)c(C=O)c2)sc1C(=O)O` is higher in melting point: 84 to 85 °C for the first, 213 to 217 °C for the second.

Compared with `CC1(C)CC(=O)C(C(=O)Nc2cc(F)cc(F)c2)C(=O)C1F` (stereo not given), `Cc1cc(=O)n(-c2cc3c(cc2F)OC(CC#N)C(=O)N3)c(=O)[nH]1` (stereo not given) is higher in melting point: 131 to 132 °C for the first, greater than 230 °C for the second.

First: CCCCOc1ccc2cc(C(C)C(=O)O)ccc2c1 (stereo not given)
Second: CCCOc1cc(C(=O)O)cc(N)c1Cc1ccccc1
The melting point of the first is lower: 125 to 127 °C for the first, 161 to 162 °C for the second.

First: C[C@@H](C(=O)O)N(C)C(=O)CCSSc1ccc([N+](=O)[O-])cc1
Second: O=C1CCCN1C(=O)Oc1ccc([N+](=O)[O-])cc1
The melting point of the first is lower: 74 to 77 °C for the first, 122 to 123 °C for the second.

First: CNS(=O)(=O)c1cc(C)oc1CC(=O)O
Second: Cc1noc(C)c1S(=O)(=O)Nc1ccc(Cl)cc1[N+](=O)[O-]
The melting point of the first is lower: 112 to 113 °C for the first, 130 to 131 °C for the second.

First: COc1cc(N)c(-c2ncn[nH]2)cc1OC
Second: CCCc1c(OCCCCCCc2ccc3cc(OC)c(OC)cc3c2)ccc(C(=O)O)c1O
The melting point of the first is higher: 205 to 210 °C for the first, 102 to 104 °C for the second.

First: NNP(=S)(Oc1ccccc1)Oc1ccccc1
Second: CCN(C(=O)C(C)CSC(c1ccccc1)(c1ccccc1)c1ccccc1)c1cn(-c2cccnc2)nc1Cl (stereo not given)
The melting point of the first is lower: 59 to 61 °C for the first, 64 to 66 °C for the second.

Compared with `CCOP(=O)(OCC)C(CSC(OC(C)=O)OC(=O)N1CCN(c2cc3c(cc2F)c(=O)c(C(=O)O)cn3CC)CC1)P(=O)(OCC)OCC` (stereo not given), `CCOC(=O)Cn1c(C(=O)OCC)c2c(c1C(=O)OCC)OCCCO2` is higher in melting point: 89 to 90 °C for the first, 140 °C for the second.

First: CC(=O)Nc1ccc(S(=O)(=O)Nc2ccc(S(=O)(=O)C=CC#N)cc2)cc1
Second: CS(=O)(=O)c1ccc(Oc2ccc(Br)cc2)nc1
The melting point of the first is higher: 204 to 205 °C for the first, 125 to 126 °C for the second.

First: N#Cc1cccc(N2C(=O)CC(=O)Nc3c2ccc2c3CCC2)c1
Second: Nc1ccc2[nH]c3ccc([N+](=O)[O-])cc3c(=O)c2c1
The melting point of the first is lower: 250 to 251 °C for the first, greater than 350 °C for the second.

First: Nc1ccccc1N1CCN(C=O)CC1
Second: CN1CCN(c2cccc3c2C[C@H](NC(=O)C2CCCCC2)CC3)CC1
The melting point of the first is lower: 129 to 133 °C for the first, 183 to 184 °C for the second.

First: Oc1ccc2c(c1O)OCC(c1cccc(C(F)(F)F)c1)C2 (stereo not given)
Second: O=C1c2cc(O)ccc2OCC1Cc1cccnc1 (stereo not given)
The melting point of the first is lower: 99 to 100 °C for the first, 163 to 166 °C for the second.

Compared with `Cc1ccc2ccc(N3C(=O)c4ccccc4C3CC(=O)CCC(C)C)nc2n1` (stereo not given), `CC(=O)c1ccccc1-c1cccc(-n2cnc(-c3nc(C)no3)c2)c1` is lower in melting point: 155 °C for the first, 144 to 146 °C for the second.

First: Cc1ccc2[nH]c3c(cc(-c4cccc(Nc5ccccn5)c4)c(=O)n3C)c2c1
Second: O=c1c2cccnc2c(-c2cccc(Cl)c2)nn1Cc1ccsc1
The melting point of the first is higher: 250 to 252 °C for the first, 165 to 166 °C for the second.

Compared with `CNC(=O)C1=CC(CF)(CF)Oc2ccc(C#N)cc21`, `COC(=O)CC1(C)Oc2ccc([N+](=O)[O-])cc2-n2c(Cl)ccc21` (stereo not given) is lower in melting point: 206 to 207 °C for the first, 124 to 125 °C for the second.

First: Cc1nc2c(s1)C(=O)C(=CN1CCOCC1)CC2
Second: Cc1nc2n(CCN3CCOCC3)c3ccccc3n2c1C(=O)c1ccc(Cl)cc1
The melting point of the first is higher: 186 to 187 °C for the first, 147 to 148 °C for the second.

First: O=C1CCC(C=Cc2ccc(-n3ccnc3)cc2)=NN1
Second: O=C(Nc1ccc(-n2nc(C(F)(F)F)cc2Cl)cc1)c1ccncc1F
The melting point of the first is higher: 230 to 231 °C for the first, 128 to 129 °C for the second.

First: CC1CCCN(c2cncc(C(=O)Nc3nnn[nH]3)n2)C1 (stereo not given)
Second: CNC1CN(CCO)CCN1c1ncc(SC)c(Cl)n1 (stereo not given)
The melting point of the first is higher: 236 to 238 °C for the first, 120 to 122 °C for the second.

First: CC(C)C1NC(c2ccccc2)=NNC1=O (stereo not given)
Second: CCOC(=O)C(=O)N(CCBr)N=Cc1ccccc1
The melting point of the first is higher: 164 °C for the first, 56 to 57 °C for the second.

Compared with `CN(C)c1nn(-c2cc(F)c(C#N)cc2F)c(=O)n1C(F)F`, `CC(Sc1ccc(OC(C)(C)C(=O)O)cc1)c1cccc2c1cnn2-c1ccc(C(F)(F)F)cc1` (racemic) is lower in melting point: 188 to 190 °C for the first, 85 to 90 °C for the second.

Compared with `O=CC=Cc1cn(Cc2cccc([N+](=O)[O-])c2)nn1`, `CCOC(=O)c1cnc2c(cnn2Cc2ccco2)c1O` is lower in melting point: 136 to 140 °C for the first, 103 to 106 °C for the second.

Compared with `CCOC(=O)c1sc(Oc2ccc(F)cc2)c2c1CCc1cnn(C)c1-2`, `CCN1CC(=O)Nc2cc(NC3(C(N)=O)CC4CC3C=C4Cl)c(OC)cc2C1` (stereo not given) is higher in melting point: 94 to 95 °C for the first, 154 to 156 °C for the second.

Compared with `Cc1ccc(C(O[Si](C)(C)C(C)(C)C)C(=O)N2CCOCC2)cc1` (stereo not given), `O=C(NC(=O)c1c(F)cccc1F)Nc1ccc(OC(c2ccc(Cl)cc2)C2CC2)cc1` (stereo not given) is higher in melting point: 64 to 65 °C for the first, 185 to 188 °C for the second.

First: CCC(CC)N(O)C(=O)NCCCC(C)CNC(=O)N(O)C(CC)CC (stereo not given)
Second: CC12CC(O)CC1C1CCc3cc(O)ccc3C1C(c1ccccc1)C2 (stereo not given)
The melting point of the first is lower: 124 to 125 °C for the first, 241 to 247 °C for the second.
